# Measurements taken from US7250397B2, “Antiarrhythmic peptides” (Zealand Pharma A/S, priority 2000, dated 2007).
# [ ]: non-standard residue; d: D form. Hyp = O=C(O)[C@@H]1C[C@@H](O)CN1
# Columns and labels:
# human osteoblastic cells = test: Lucifer Yellow dye transfer in DDT-treated human osteoblast cells; format: cell-based; conditions: DDT 13 μM, 60 minutes; control 14.5 cells
# Description: Human osteoblast cells: Cells were isolated from human bone marrow obtained by puncture of the posterior iliac spine of healthy volunteers (aged 20-36): 10-15 ml marrow material was collected in 15 ml PBS+Ca, Mg (Life Technologies, Cat.No. 14040) with 100 U/ml Heparin (Sigma, Cat.No. H-3149). The mononuclear fraction of the marrow was isolated on a Lymphoprep gradient (Nycomed Pharma, Cat.No. 1001967), by centrifugation at 2200 rpm for 30 min. After harvesting, the mononuclear fraction was washed once with culture medium and centrifuged at 1800 rpm for 10 min. Subsequently cells were counted and plated in culture medium at 8×10^6 cells/100 mm dish. hOB medium (all reagents obtained from Life Technologies): MEM w/o Phenol Red w/Glutamax (Cat.No. 041-93013) supplemented with 10% heat inactivated fetal calf serum (Cat.No. 10106) and 0.1% Penicillin/Streptomycin (Cat.No. 15140). Medium was changed the following day and the cells were cultured at 37° C. in 5%CO2 with medium change every 7 days. After 3-4 weeks of culture the cells had reached 70% confluence. The medium was then supplemented with 100 nM Dexamethasone (Sigma, Cat.No. D-4902) for 7 days. […]
# The dye Lucifer Yellow (LY) was injected into one single human osteoblast in a monolayer. After 30 seconds, the number of cells containing dye was assessed. […]
# [1] = In vitro stability test in rabbit plasma (heparin); format: in vitro ADME; conditions: 37° C., 0.1 mg/ml, mean n=3
# Description: (§1) The stability of peptides is analysed in different plasma and serum types. The peptides are incubated at 37° C. in plasma and samples taken at approx. 9 regular intervals between t=0 and t=156 min are analysed by HPLC.
# (§2) This is done by subsequent injections of the drug, plasma, and a co-injection with the drug and the plasma, followed by optimisation of the LC method parameters until a satisfactory separation is obtained. Three parallel experiments are performed for each plasma type:100 μl of peptide is mixed with 900 μl plasma at t=0 and incubated at 37° C. (drug-plasma mixture conc. 0.1 mg/ml). Samples of 100 μl of the drug-plasma mixture are removed at appropriate intervals and the degradation stopped by precipitation of the sample with 10 μl MeCN:TFA 50:50 v/v. A control plasma sample without the drug treated in the same manner is also taken. The plasma samples are centrifuged for 15 min. at 12,000 rpm (Eppendorf centrifuge) at ambient temperature. The resulting supernatant solution is transferred to 300 μl HP autosamler vials and analyzed by HPLC. […] Temp.: 40° C. • Solvent: MeCN/MQW/TFA (0.1%). Run time: 25 min. • Inj.vol.:15 μL. […]
# (§3) The samples are analyzed in the following order: blank, the peptide at 0.1 mg/mL, the plasma without the peptide, the three parallel samples for t=0, the three parallel samples for t=5 min. the three parallel samples for t=10 min. etc. […]
# [2] = In vitro stability test in human serum; format: in vitro ADME; conditions: 37° C., 0.1 mg/ml, mean n=3
# Description: as §1, §2, §3
Compound,median number of cells containing dye (human osteoblastic cells),T1/2 [1],T1/2 [2]
"Clc1ccc(C(c2ccc(Cl)cc2)C(Cl)(Cl)Cl)cc1 [DDT, 1,1-bis(p-chlorophenyl)-2,2,2-trichlorethane]",7 cells,–,–
H-PYNGAG[Hyp]-NH2 [Compound 27],–,3.8 h,3.1 h
